Values joined by “and” are separate entries in the source; they are usually repeats but may differ in a detail not shown here. Identical values can stand only once.
Legend:
[1] = MTT cell viability/cytotoxicity assay; type: cell-based; conditions: human, Hep G2 cells
Procedure: The Hep G2 human hepatocarcinoma cell line (American Type Culture Collection, ATCC, Manassas, Virginia, USA) was cultured using EMEM (Eagle’s minimal essential medium, ATCC) supplemented with 10% FBS (fetal bovine serum, ATCC) and 1% penicillin streptomycin as previously described (10,000 units/mL penicillin and 10,000 μg/mL streptomycin, Fisher scientific, Hampton, New Hampshire, USA). The cells were grown and subcultured around 72 h at 37°C, 5% CO2 under controlled humidity. The cells growth and morphology were inspected using an inverted Carl Zeiss microscope (Carl Zeiss Microscopy LLC, White Plains, New York, USA).
Using manufacturer’s instructions, Hep G2 cells were cultured for 24 h with a density of 2 × 10^5 cells/mL in a 96-well culture plate at 37°C, 5% CO2 under controlled humidity. […] Cell cytotoxicity was performed via the MTT (3-(4,5-dimethylthiazol-2-yl)-2,5-diphenyltetrazolium bromide) assay at 570 nm absorbance using BioTek synergy H1 (Vermont, USA) plate reader according to previously published paper. The MTT stock was made at 5 mg/mL using 0.9% sodium chloride solution which was purchased from Sigma Aldrich (St. Louis, Missouri, USA). Twenty-four hours after dosing the plate, the cultured medium was aspirated and replaced with the equal volume of MTT solution (10× dilution using EMEM complete media). The plate was incubated for 4 h (37°C, 5% CO2). The MTT solution was replaced by the equal amount of acidified isopropanol (0.3% hydrochloric acid (v/v)) and then formed formazan was dissolved by shaking the plate gently for 30 min. The absorbance was measured at 570 nm for both the samples and acidified isopropanol for background calculation. Chlorpromazine and cells with 0.1% DMSO were used as positive control and vehicle, respectively. The cell viability of each concentration was measured by normalizing against mean value of cells with 0.1% DMSO (vehicle).

human serum albumin = human serum albumin (Homo sapiens, UniProt P02768); type: in vitro ADME
Chain of human serum albumin (P02768 25-609): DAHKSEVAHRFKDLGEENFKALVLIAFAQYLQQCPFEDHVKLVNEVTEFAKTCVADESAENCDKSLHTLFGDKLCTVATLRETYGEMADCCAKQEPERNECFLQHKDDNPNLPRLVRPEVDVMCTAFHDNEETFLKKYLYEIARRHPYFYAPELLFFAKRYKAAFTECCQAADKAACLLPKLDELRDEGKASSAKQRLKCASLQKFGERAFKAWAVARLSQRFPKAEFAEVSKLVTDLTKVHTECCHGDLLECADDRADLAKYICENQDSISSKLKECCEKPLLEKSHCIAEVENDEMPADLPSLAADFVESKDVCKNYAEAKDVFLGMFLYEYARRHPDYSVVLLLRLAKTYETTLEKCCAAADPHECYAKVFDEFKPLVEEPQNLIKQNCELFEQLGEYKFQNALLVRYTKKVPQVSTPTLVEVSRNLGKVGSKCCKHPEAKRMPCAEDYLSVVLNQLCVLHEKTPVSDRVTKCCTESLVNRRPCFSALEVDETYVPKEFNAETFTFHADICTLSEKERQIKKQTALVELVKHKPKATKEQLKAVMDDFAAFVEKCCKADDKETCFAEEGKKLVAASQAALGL

[2] = Relative cell viability of transfected NSC-34 cells; type: cell-based, mouse; conditions: mouse, 48 h, replicates
Procedure: (§1) Transfected NSC-34 cells were plated out into 96-well plates and left overnight. […] Cells were then fixed using 4% (w/v) paraformaldehyde in 1×PBS for 20 min. Plates for imaging were then processed as previously described with some changes. Cells were imaged using a DMi8 epifluorescent microscope (Leica, Germany) fitted with a Mercury Arc Lamp, a 10× 0.25NA (CAT NO) air objective and an automated stage. A software-based autofocus strategy was utilized to focus on the GFP signal within cells, with a subsequent image being taken in the DAPI channel to view Hoescht-stained nuclei. Relative focus correction was applied between channels to offset emission wavelength effects to the focal plane. Following image acquisition, images were corrected for illumination variation via a background method and processed using a combination of FIJI [66], StarDist, CellProfiler, and CellProfiler Analyst as previously described.
(§2) Image set data taken from the previous inclusion formation assay were used to examine both relative cell viability and relative levels of SOD1-EGFP. To determine relative viability, we extracted the total number of transfected cells in each treatment group and normalized the values to the untreated group to determine the relative number of cells at assay endpoint.

[3] = test system: NSC-34 cells expressing EGFP-G93A; test: as above; type: cell-based, mouse; conditions: for Viability %: G93A, 48 h, replicates
Procedure: as §1, §2

[4] = test system: NSC-34 cells expressing EGFP-WT-SOD1; test: as above; type: cell-based, mouse; conditions: for Viability %: WT, 48 h, replicates
Procedure: as §1, §2

in vivo = conditions: C57BL/6, mouse
Procedure: (§3) Any clinical abnormalities including but not limited to ruffled fur, unstable gait, severe lethargy, and mortality was observed after dosing. The post-dose washout period was maintained for 48 h for both PO, IV, and SC route of administration.

C57BL/6 mice = test: in vivo; conditions: mouse
Procedure: as §3

SOD1 = biological target: T1, SOD1 (Homo sapiens, UniProt P00441, G94A); test: Target engagement in blood during the survival studies; type: in vivo, mouse
T1 construct: Extraction of SOD1^G93A from red blood cell (RBC) protein was performed as previously described; tissue Jackson Laboratory 002726; host or cells: red blood cells of transgenic B6SJL-Tg(SOD1*G93A)1Gur/J mice
T1 sequence (P00441 2-154 G94A limits assumed): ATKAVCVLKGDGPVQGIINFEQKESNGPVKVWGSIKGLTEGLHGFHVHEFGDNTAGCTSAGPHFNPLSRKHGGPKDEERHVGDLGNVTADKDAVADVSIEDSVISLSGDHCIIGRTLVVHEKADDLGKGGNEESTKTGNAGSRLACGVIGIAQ
Source text: Two fALS lines were used to assess survival in genetic backgrounds with different disease severity. […] Dose and dose regimen were estimated from the blood PK/PD profile and BBB penetration described above. A subcutaneous (SC) route of administration was chosen because in our hands it results in more precise delivery. […] In both studies, mice were gender and littermate matched and non ALS-related deaths were excluded. We are currently developing the methods necessary for quantifying copy number and cannot rule out reduced SOD1 expression as having contributed to the survival benefit in treated B6 G93A mice.
The data underlying this figure can be found in S1 Data. fALS, familial amyotrophic lateral sclerosis.

SOD1^G93A = SOD1^G93A (Homo sapiens, UniProt P00441, G94A); test: Pharmacodynamic profiling: cross-linked SOD1^G93A dimer in blood (RBC) by LC-MS; type: in vivo, mouse; design: Extraction of SOD1^G93A from red blood cell (RBC) protein was performed as previously described; tissue Jackson Laboratory 002726; host or cells: red blood cells of transgenic B6SJL-Tg(SOD1*G93A)1Gur/J mice; conditions: for % Dimer (cross-linked SOD1^G93A in blood): 10 mg/kg IV single dose
Chain of SOD1^G93A (P00441 2-154 G94A limits assumed): as above

With `[O-][S+]1CCCCS1` (centres unmarked) [S-XL6, 1,2-dithiane-1-oxide] the viability at 24 h, 10 µM ([1]; 10 µM, read-out: viable cells compared to vehicle control (MTT)) was 125%, the viability at 24 h, 100 µM ([1]; 100 µM, read-out: viable cells compared to vehicle control (MTT)) was 102% and the viability at 24 h, 150 µM ([1]; 150 µM, read-out: viable cells compared to vehicle control (MTT)) was 90%. It also gave a viability at 24 h, 250 µM ([1]; 250 µM, read-out: viable cells compared to vehicle control (MTT)) of 79%, a viability at 24 h, 400 µM ([1]; 400 µM, read-out: viable cells compared to vehicle control (MTT)) of 72% and a viability at 24 h, 600 µM ([1]; 600 µM, read-out: viable cells compared to vehicle control (MTT)) of 15%. The viability at 24 h, 800 µM ([1]; 800 µM, read-out: viable cells compared to vehicle control (MTT)) was 14%, the viability at 24 h, 1000 µM ([1]; 1000 µM, read-out: viable cells compared to vehicle control (MTT)) was 14% and the CC50 at 24 h ([1]; MTT, read-out: Cytotoxicity LC50) was about 446 µM. For the same compound, the “binding to purified protein” value (human serum albumin) was “not bound”, the viability at 48 h, 5 µM ([2]; NSC-34 cells expressing EGFP-G93A, G93A, 5 uM) was 96% and the viability at 48 h, 10 µM ([2]; NSC-34 cells expressing EGFP-G93A, G93A, 10 uM) was 97.2%. The viability at 48 h, 20 µM ([2]; NSC-34 cells expressing EGFP-G93A, G93A) was 83%, the viability at 48 h, 20 µM ([2]; NSC-34 cells expressing EGFP-WT-SOD1, WT) was 109% and the “survival/viability of cells expressing EGFP-labeled G93A” value [3] was “did not affect”. The Viability % ([3]; 5 uM) was 106.323% and 98.5697% and 106.015% and 108.827%, the Viability % ([3]; 10 uM) was 107.355% and 99.404% and 108.897% and 105.562% and the Viability % ([3]; 20 uM) was 94.1936% and 84.8629% and 91.604% and 88.2709%. For the same compound, the “viability of cells expressing EGFP-labeled wild-type SOD1” value [4] was “did not affect the viability”, the Viability % ([4]; 5 uM) was 118.019% and 98.8542% and 94.2887% and 103.364% and 96.0765% and the Viability % ([4]; 10 uM) was 120.286% and 102.188% and 99.0654% and 102.243% and 98.2897%. The Viability % ([4]; 20 uM) was 91.25% and 91.5888% and 93.8838% and 89.0342%, the LD50 at 48 h (in vivo; iv) was 75 mg/kg and the LD50 at 48 h (in vivo; po) was 1000 mg/kg. The LD50 at 48 h (in vivo; sc) was 275 mg/kg, the “mortality in up-down study” value (C57BL/6 mice; iv, 55 mg/kg) was “One mouse died” and the “mortality in up-down study” value (C57BL/6 mice; iv, 60 mg/kg) was “another mouse died”. The “mortality in up-down study” value (C57BL/6 mice; sc, 60 mg/kg) was “one mouse died”, the “target engagement after initial dose” value (SOD1; B6SJL G93A mice, initial SC dose of 20 mg/kg) was “lower target engagement than expected” and the “SOD1 engaged (on average) over time” value (SOD1; survival studies, 50 mg/kg SC) was “approximately 40%”. The “% Dimer (cross-linked SOD1^G93A in blood)” value (“% Dimer” for short) (SOD1^G93A; 0.5 h post dose) was 38%, the “% Dimer” value (SOD1^G93A; 1 h post dose) was 63% and the “% Dimer” value (SOD1^G93A; 2 h post dose) was 55%. The “% Dimer” value (SOD1^G93A; 4 h post dose) was 53%, the “% Dimer” value (SOD1^G93A; 8 h post dose) was 51% and the “% Dimer” value (SOD1^G93A; 12 h post dose) was 42%. For the same compound, the “% Dimer” value (SOD1^G93A; 24 h post dose) was 26%, the “% Dimer” value (SOD1^G93A; 48 h post dose) was 20% and the “% Dimer” value (SOD1^G93A; 72 h post dose) was 16%. For the same compound, the “% Dimer” value (SOD1^G93A; […] post dose) was 6% and the “Target engagement in blood and brain” value (SOD1^G93A; G93A fALS mouse) was “SOD1 dimer formation in G93A fALS mouse blood and brain”.

Source: article PMC10826971, “Evaluating protein cross-linking as a therapeutic strategy to stabilize SOD1 variants in a mouse model of familial ALS” (PLOS Biology, 2024)
